# Measured values from article PMC9780888, “4-Isobutylmethcathinone—A Novel Synthetic Cathinone with High In Vitro Cytotoxicity and Strong Receptor Binding Preference of Enantiomers” (Pharmaceuticals, 2022).
# Molecular target: T1, dopamine receptor DAR1 (Homo sapiens, UniProt P21728)
# T1 construct: host or cells: HTLA (HEK 293-derived)
# Experiment: PRESTO-Tango β-arrestin 2 recruitment assay, DAR1
# Assay type: cell-based
# Conditions: HTLA cells
# Source text: However, binding to a specific receptor/transporter and, thus, the mechanism of action of a given cathinone always depends on the specific structure of the evaluated compound [37]. In this study, the binding activity of IBMcat and its enantiomers was verified by PRESTO-Tango (parallel receptor expression and screening via transcriptional output, with transcriptional activation following arrestin-2 translocation) assay using the HTLA cell line stably producing β-arrestin-2 in a fusion with TEV and luciferase production driven by tTA. […] The transcription factor then translocates to the cell nucleus, in which it triggers the transcription of the target gene for luciferase production which can be determined by the light emitted from luciferin conversion to oxyluciferin. Here, the pronounced luminescence was recorded for all DAR1-4 types in HTLA cells treated with IBMCat and its enantiomers (Figure 8). […]
# The transfected HTLA cells were incubated for 24 h, and then 1 × 10^4 cells were seeded per well of a white 96-well clear bottom plate (Brand, Germany) in 40 μL of DMEM with 1% charcoal-stripped FBS (Thermo Fisher Scientific, USA). […] After 5 min., the luminescence was measured using a multi-mode microplate reader SpectraMax iD5 (Molecular Devices, San Jose, CA, USA) measuring the entire wavelength spectrum. All samples were measured in quadruplicates. […]
# T1 sequence (P21728 whole entry): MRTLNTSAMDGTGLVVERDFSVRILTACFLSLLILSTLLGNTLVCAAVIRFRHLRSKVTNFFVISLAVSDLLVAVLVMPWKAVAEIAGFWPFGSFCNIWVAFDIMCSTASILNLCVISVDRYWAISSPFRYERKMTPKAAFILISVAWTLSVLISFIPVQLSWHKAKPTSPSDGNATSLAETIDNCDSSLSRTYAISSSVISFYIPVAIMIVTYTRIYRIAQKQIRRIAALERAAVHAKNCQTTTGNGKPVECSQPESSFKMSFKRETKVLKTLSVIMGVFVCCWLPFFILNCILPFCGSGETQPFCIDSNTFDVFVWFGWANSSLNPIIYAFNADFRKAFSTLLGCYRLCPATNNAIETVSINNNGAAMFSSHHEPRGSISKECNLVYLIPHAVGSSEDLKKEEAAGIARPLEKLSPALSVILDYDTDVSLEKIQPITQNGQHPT
compound,measurement,setting,value
"CNC(C)C(=O)c1ccc(CC(C)C)cc1.Cl (centres unmarked) [IBMcat, 4-isobutylmethcathinone hydrochloride]",effect on DAR1 (increase in RLU with increasing concentration),0-500 nM,acted as agonists
same,concentration from which no further increase in RLU was detected (maximum effective concentration),DAR1,10 nM
